“And” between values parts separate entries of the source, which are not always exact repeats. Equal entries are not always repeated.
How the values were obtained:
human amylin (hIAPP) [1] = biological target: T1, human amylin (hIAPP) (Homo sapiens, UniProt P10997); test: Thioflavin T (ThT) fluorescence assay of amylin aggregation; type: biochemical; conditions: for inhibition at 10 µM: read-out: ThT inhibition % (mean ± SEM), compound 10 μM, amylin 15 μM, 36 h incubation, 3 trials
T1 construct: purchased Bachem USA
T1 sequence (P10997 34-70 limits assumed): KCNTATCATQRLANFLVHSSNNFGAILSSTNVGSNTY
Description: (§1) A stock solution of amylin (1 mM) (purchased from Bachem USA), peptide sequence: […] amide (with disulfide bond between Cys2 and Cys7), was prepared in 100% hexafluoroisopropyl alcohol (HFIP) (purchased from Sigma-Aldrich) and stored at −20 °C. , Aliquots of amylin peptide were filtered through a 0.22 μm filter from the stock solution and freeze-dried. For kinetic experiments, 15 μM of amylin was prepared in 50 mM Tris-HCl buffer (pH 7.4), as investigated in previous studies by Chaari et al., , Samples of amylin were prepared in the presence or absence of inhibitors. Each compound was dissolved in DMSO and further diluted with the buffer used to solubilize the amylin. The final mixture contained 15 μM amylin, 10 μM of the test compound, 2% DMSO or 15 μM amylin, and 2% DMSO without the compound (negative control). Also 15 μM amylin, 10 μM of oleuropein aglycone and 2% DMSO was used as a positive control. The prepared solutions were incubated under physiological conditions (pH 7.4 and 37 °C) for amylin aggregation. Samples were incubated for 36 h to test for amylin aggregation, and measurements were conducted at different time points.
Amylin aggregation was monitored by characteristic changes in Thioflavin T (ThT) fluorescence intensity. A ThT stock solution (15 μM) was prepared in deionized water at pH 7.4. The amylin samples were mixed with the ThT solution and allowed to incubate. ThT fluorescence was measured using the PerkinElmer model LS 55 fluorescence spectrophotometer (PerkinElmer, USA), with an excitation wavelength of 440 nm and an emission wavelength of 480 nm. ,− The emission and excitation slits were set to 5 nm, and a 1 cm cuvette was used for all experiments. Nonspecific background fluorescence was subtracted from the samples using appropriate blanks in the absence of proteins. Each experiment was performed in triplicate.

human amylin (hIAPP) [2] = biological target: T1, human amylin (hIAPP); test: Kinetic analysis of amylin aggregation (ThT, two-step autocatalytic aggregation model); type: biochemical; conditions: mean ± S.D.; for t 0 (time point when the aggregation starts): 10% of highest ThT fluorescence; for t 1/2 (aggregation halftime): 50% of highest ThT fluorescence; for t 1 (aggregation endpoint): 90% of highest ThT fluorescence; for k / k e (elongation constant) / k n (nucleation constant) / ρ (ratio of kn to k): ThT data, autocatalytic aggregation model
Description: Kinetic analysis was performed according to the model of autocatalytic aggregation. According to Sabaté et al., aggregation is a two-step process, comprising nucleation (described by the k n constant) and fibrillation phases (represented by the k e constant). Two constants (k n and k e) are calculated using the eq : 5 f=ρ{e^[(1+ρ)kt]−1}/{1+ρe^[(1+ρ)kt]} where k = k e a (where a represents the initial concentration of the aggregating peptide), f stands for a fraction of the fibrillar form in the system, and ρ denotes the dimensionless ratio of k n to k. The parameters k and ρ were calculated first, then k n and k e.
Data were normalized as a fraction of the highest fluorescence from the three trials and fitted into the model of autocatalytic aggregation. The same procedure was repeated for the remaining trials. The second calculation aimed to find the time parameters of the aggregation process: t 0 (time point when the aggregation starts), t 1/2 (aggregation halftime), and t 1 (aggregation endpoint). t 0, t 1/2, and t 1 were calculated as 10%, 50%, and 90% of the highest fluorescence measurements from the three trials, respectively. All calculations were performed using GraphPad Prism 9.5.1, Statistica 13.3.721.1, and Microsoft Excel 2304.

human amylin (hIAPP) [3] = biological target: T1, human amylin (hIAPP); test: Thioflavin T (ThT) fluorescence assay of amylin aggregation; type: biochemical; conditions: read-out: IC50 of amylin aggregation inhibition
human amylin (hIAPP) [4] = biological target: T1, human amylin (hIAPP); test: Dynamic light scattering (DLS) assay of amylin aggregation; type: biochemical; conditions: compound 10 μM, amylin 15 μM, 36 h incubation, 3 trials; read-out: DLS inhibition % (mean ± SEM)
Description: as §1
DLS (Zetasizer, Malvern) was used at a wavelength of 633 nm to measure the average diffusion coefficient distribution of amylin particles and the aggregation percentage. Samples were diluted 10-fold, and 50 μL was placed into a 96-well plate. The total light scattering intensity at a 90° angle was collected using a 10 s averaging acquisition time. Particle translational diffusion coefficients were calculated from autocorrelated light intensity data (usually 30–40 points) and converted to the hydrodynamic radius (R h) using the Stokes–Einstein equation. A distribution plot of intensity versus R h was calculated using the Sedfit 9.3 analysis software, and intensity-weighted mean R h values were obtained from each peak.

Aβ = tested on: Aβ; design: method as in Panek et al.; conditions: ref Panek et al.; cited from earlier work

## C/C=C1/C(O)OC=C(C(=O)OC)[C@H]1CC(=O)OCCc1ccc(O)c(O)c1 (mixture of isomers) [Oleuropein aglycone, reference compound]
Human amylin (hIAPP) [1]; compound 10 μM, amylin 15 μM, 36 h incubation, 3 trials
  ThT inhibition % (mean ± SEM): 82.3 ± 2.0%
Human amylin (hIAPP) [2]
  t 0 (time point when the aggregation starts): 10.76 ± 0.25 h
  t 1/2 (aggregation halftime): 19.67 ± 0.31 h
  t 1 (aggregation endpoint): 28.83 ± 0.30 h
  k: 0.2366 ± 0.0075 h^–1
  k e (elongation constant): 15773 ± 650 M^–1h^–1
  k n (nucleation constant): 0.0022 ± 0.0005 h^–1
  ρ (ratio of kn to k): 0.0093 ± 0.0002
Human amylin (hIAPP) [2]; listed as oleuropein aglycone
  k e (elongation constant): 15773 M^–1h^–1
Human amylin (hIAPP) [3]
  IC50: 1000 nM

## CCCC(C)N1CCN(CC(O)CNCc2ccc(OC)cc2)CC1 (stereo not shown) [Compound 1]
Human amylin (hIAPP) [1]
  inhibition at 10 µM: 13.1 ± 1.8%
Human amylin (hIAPP) [4]
  inhibition at 10 µM: 19.7 ± 2%

## COc1ccc(CNCC(O)CN2CCN(c3ccccc3)CC2)cc1 (stereo not shown) [Compound 2]
Human amylin (hIAPP) [1]
  inhibition at 10 µM: 5 ± 0.7%
Human amylin (hIAPP) [4]
  inhibition at 10 µM: 6.9 ± 0.5%

## COc1ccc(CNCC(O)CN2CCN(Cc3ccccc3)CC2)cc1 (stereo not shown) [Compound 3]
Human amylin (hIAPP) [1]
  inhibition at 10 µM: 8.8 ± 4.9%
Human amylin (hIAPP) [4]
  inhibition at 10 µM: 17.9 ± 1.4%

## OC(CNCc1ccccc1)CN1CCN(C(c2ccccc2)c2ccccc2)CC1 (stereo not shown) [Compound 4]
Human amylin (hIAPP) [1]
  inhibition at 10 µM: 15.5 ± 0.7%
Human amylin (hIAPP) [4]
  inhibition at 10 µM: 20 ± 1.9%

## COc1ccc(CNCC(O)CN2CCN(C(c3ccccc3)c3ccccc3)CC2)cc1 (stereo not shown) [Compound 5]
Human amylin (hIAPP) [1]
  inhibition at 10 µM: 12.1 ± 1.1%
Human amylin (hIAPP) [4]
  inhibition at 10 µM: 19.5 ± 2.2%

## CC(C)(C)c1cccc(CNCC(O)CN2CCN(C(c3ccccc3)c3ccccc3)CC2)c1 (stereo not shown) [Compound 6]
Human amylin (hIAPP) [1]
  inhibition at 10 µM: > 50%
Human amylin (hIAPP) [4]
  inhibition at 10 µM: 30.3 ± 3.1%
Human amylin (hIAPP) [2]
  t 0 (time point when the aggregation starts): 8.36 ± 0.56 h
  t 1/2 (aggregation halftime): 16.61 ± 0.27 h
  t 1 (aggregation endpoint): 25.27 ± 0.39 h
  k: 0.2488 ± 0.0157 h^–1
  k e (elongation constant): 16585 M^–1h^–1 and 16585 ± 1051 M^–1h^–1
  k n (nucleation constant): 0.0039 ± 0.0009 h^–1
  ρ (ratio of kn to k): 0.0159±0.0044
Human amylin (hIAPP) [3]
  IC50: 4110 nM
Aβ
  inhibition of Aβ aggregation in the ThT assay: 77.2%

## COc1ccc(CNCC(O)CN2CCN(C(c3ccc(F)cc3)c3ccc(F)cc3)CC2)cc1 (stereo not shown) [Compound 7]
Human amylin (hIAPP) [1]
  inhibition at 10 µM: 17 ± 0.7%
Human amylin (hIAPP) [4]
  inhibition at 10 µM: 18.6 ± 1.4%

## CCCC(C)N1CCN(CCC(O)CNCc2ccc(OC)cc2)CC1 (stereo not shown) [Compound 8]
Human amylin (hIAPP) [1]
  inhibition at 10 µM: 20.8 ± 1%
Human amylin (hIAPP) [4]
  inhibition at 10 µM: 20.1 ± 2%

## COc1ccc(CNCC(O)CCN2CCN(c3ccccc3)CC2)cc1 (stereo not shown) [Compound 9]
Human amylin (hIAPP) [1]
  inhibition at 10 µM: 4.3 ± 0.7%
Human amylin (hIAPP) [4]
  inhibition at 10 µM: 10 ± 0.5%

Source: PMC12612973, “Inhibition of Human Amylin Aggregation: In Silico and In Vitro Studies” (ACS Omega, 2025)
